From patent US10736829B2, “Use of certain hydroxybenzoic acid amides for masking unpleasant taste impressions” (SYMRISE AG, priority 2015, dated 2020)

Tests used:
Type in all cases: in vivo
[1] = Masking of the bitter taste of peptides, panel of experts (n=15), randomized duo-tests: Tyr-Pro-Phe-Pro; details: for Bitter taste peptide solution + 100 ppm compound: Tyr-Pro-Phe-Pro 0.1% (w/v) in water, scale 0 to 10; for Reduction of bitterness (%): Tyr-Pro-Phe-Pro 0.1% (w/v), 100 ppm compound, negative = less bitter
Method: (§1) The masking effect of 2,4-Dihydroxy-N-[(4-hydroxy-3-methoxy-phenyl)methyl]benzamide (compound 1) and N-[(4-hydroxy-3-methoxy-phenyl)methyl]-2,4-dimethoxy-benzamide (compound 5) on the bitter taste of peptides was examined in a panel of experts (n=15) in randomized duo-tests. Therefore, solutions of bitter peptides in water with or without the addition of the exemplary substances were tasted and the perceived bitter taste was evaluated on a scale from 0 (not bitter) to 10 (extremely bitter).

[2] = Masking of the bitter taste of whey protein hydrolysate solution, panel of experts (n=8), randomized duo-tests; details: base 3% (w/v) whey protein hydrolysate in water; 100 ppm compound 1; aroma 1.6% (w/v) in the combination
Method: The bitter masking effect of 2,4-dihydroxy-N-[(4-hydroxy-3-methoxy-phenyl)methyl]benzamide (compound 1) on the bitter taste of whey protein hydrolysate was tested in a panel of experts [n=8] for a solution of 3% (w/v) of a commercially available whey protein hydrolysate (BioZate 3 of the company Davisco) in randomized duo-tests. The perceived bitter taste was evaluated on a scale from 0 [not bitter] to 10 [extremely bitter]. For comparison, a combination of compound 1 with a usual bitter masking aroma was tested, to examine possible additive effects.

[3] = Masking of the bitter taste of peptides; details: 100 ppm; compound 1: plurality of peptides, except Leu-Trp and Glu-Leu-Leu
Method: as §1

[4] = Masking of the bitter taste of peptides, panel of experts (n=15), randomized duo-tests: Leu-Trp (comparative example); details: for Reduction of bitterness (%): Leu-Trp 0.2% (w/v) (comparative peptide), 100 ppm compound, negative = less bitter; for Bitter taste peptide solution + 100 ppm compound: Leu-Trp 0.2% (w/v) in water (comparative peptide), scale 0 to 10
Method: as §1

[5] = Masking of the bitter taste of peptides, panel of experts (n=15), randomized duo-tests: Glu-Leu-Leu (comparative example); details: for Reduction of bitterness (%): Glu-Leu-Leu 0.2% (w/v) (comparative peptide), 100 ppm compound, negative = less bitter; for Bitter taste peptide solution + 100 ppm compound: Glu-Leu-Leu 0.2% (w/v) in water (comparative peptide), scale 0 to 10
Method: as §1

[6] = Masking of the bitterness of a mixture of bitter amino acids, panel of experts (n=13), randomized duo-test with nose clip; details: 100 ppm sample; for Reduction of bitterness in % compared to the mixture of amino acids: negative = less bitter, positive = more bitter; for Bitter taste amino acid mixture + sample: scale 0 [not bitter] to 10 [extremely bitter], n=13
Method: The masking effect of hydroxybenzoic acid amides (compounds 1-4) to be preferably used according to the invention as well as a comparative substance (compound 5) on a mixture of bitter amino acids (2 g/l L-Isoleucine; 3.5 g/l L-Leucine; 1 g/l L-Phenylalanine; 0.7 g/l L-Tryptophan in water) was evaluated by an panel of experts (n=13) (Evaluation 0 [not bitter] up to 10 [extremely bitter]). The tasting was performed with a nose clip, to exclude olfactory influences, and in a randomized duo-test. The bitterness of the mixture of amino acids was evaluated by the panel by 4.98±0,31 on a scale from 0 to 10.

[7] = Masking of the bitter taste of peptides, panel of experts (n=15), randomized duo-tests: Arg-Pro; details: for Bitter taste peptide solution + 100 ppm compound: Arg-Pro 0.1% (w/v) in water, scale 0 (not bitter) to 10 (extremely bitter); for Reduction of bitterness (%): Arg-Pro 0.1% (w/v), 100 ppm compound, negative = less bitter
Method: as §1

[8] = Masking of the bitter taste of peptides, panel of experts (n=15), randomized duo-tests: Trp-Trp-Trp; details: for Bitter taste peptide solution + 100 ppm compound: Trp-Trp-Trp 0.01% (w/v) in water, scale 0 to 10; for Reduction of bitterness (%): Trp-Trp-Trp 0.01% (w/v), 100 ppm compound, negative = less bitter
Method: as §1

COc1cc(CNC(=O)c2ccc(O)cc2O)ccc1O [compound 1, 2,4-Dihydroxy-N-[(4-hydroxy-3-methoxy-phenyl)methyl]benzamide]
Bitter taste peptide solution + 100 ppm compound [1]: 3.43
Reduction of bitterness (%) [1]: −23.3%
Reduction of the bitter taste [%] [2]: −24.5%
Effect on the bitterness of the peptides (in words) [3]: clear reduction of the bitterness
Reduction of bitterness (%) [4]: −4%
Bitter taste peptide solution + 100 ppm compound [4]: 6.5
Reduction of bitterness (%) [5]: −3.77%
Bitter taste peptide solution + 100 ppm compound [5]: 5.1
Reduction of bitterness in % compared to the mixture of amino acids [6]: −25.9%
Bitter taste amino acid mixture + sample [6]: 3.90
Bitter taste peptide solution + 100 ppm compound [7]: 1.47
Reduction of bitterness (%) [7]: −20.9%
Bitter taste peptide solution + 100 ppm compound [8]: 5.35
Reduction of bitterness (%) [8]: −17.4%

COc1cc(Cn2c(=O)oc3cc(O)cc(O)c3c2=O)ccc1O [compound 2, 5,7-Dihydroxy-3-[(4-hydroxy-3-methoxy-phenyl)methyl]-1,3-benzoxazin-2,4-dione]
Reduction of bitterness in % compared to the mixture of amino acids [6]: −30.3%
Bitter taste amino acid mixture + sample [6]: 3.20

COc1cc(CNC(=O)c2ccc(O)cc2)ccc1O [compound 3, 4-Hydroxy-N-[(4-hydroxy-3-methoxy-phenyl)methyl]benzamide]
Reduction of bitterness in % compared to the mixture of amino acids [6]: −14.1%
Bitter taste amino acid mixture + sample [6]: 4.11

COc1cc(CNC(=O)c2ccccc2O)ccc1O [compound 4, 2-Hydroxy-N-[(4-hydroxy-3-methoxy-phenyl)methyl]benzamide]
Reduction of bitterness in % compared to the mixture of amino acids [6]: −7.7%
Bitter taste amino acid mixture + sample [6]: 4.74

COc1ccc(C(=O)NCc2ccc(O)c(OC)c2)c(OC)c1 [compound 5, N-[(4-hydroxy-3-methoxy-phenyl)methyl]-2,4-dimethoxy-benzamide, reference compound]
Bitter taste peptide solution + 100 ppm compound [1]: 4.68
Reduction of bitterness (%) [1]: 4.46%
Effect on the bitterness of the peptides (in words) [3]: not able to achieve a reduction of the bitterness
Reduction of bitterness (%) [4]: 4.41%
Bitter taste peptide solution + 100 ppm compound [4]: 7.1
Reduction of bitterness (%) [5]: 5.66%
Bitter taste peptide solution + 100 ppm compound [5]: 5.6
Reduction of bitterness in % compared to the mixture of amino acids [6]: 22.8%
Bitter taste amino acid mixture + sample [6]: 6.86
Bitter taste peptide solution + 100 ppm compound [7]: 2.05
Reduction of bitterness (%) [7]: 10.81%
Bitter taste peptide solution + 100 ppm compound [8]: 6.40
Reduction of bitterness (%) [8]: −1.08%
